Laboratory results taken from patent US20250210128A1, “COMPUTER-IMPLEMENTED DESIGN OF PEPTIDE:RECEPTOR SIGNALING COMPLEXES FOR ENHANCED CHEMOTAXIS” (Ecole Polytechnique Federale de Lausanne (EPFL), priority 2022, published 2025).

Tested on: primary human T cells
Test: Boyden chamber migration assay of T cells transduced with CXCR4 variants
Assay type: cell-based
Settings: 100 nM wild-type CXCL12 full-length chemokine
Description: T cells transduced and selected for CXCR4 variant expression from 3-6 donors were stained with 1 uM Vybrant DiO cell-labeling solution (Thermo, ref. V22886) in serum-free RPMI 1640+GlutaMax. 40,000 cells in 75 uL were seeded in each well of 96-well Boyden chambers with 5.0 μm pores (Corning, ref. 3388)^42. Reservoirs were filled with 200 uL serum-free RPMI 1640+GlutaMax or supplemented with 100 nM chemokine. The bottom of the attractant reservoir was imaged for migrated cells over the course of 8 hours with a Cytation 5 BioSpa (Biotek) at 37° C. with 5% CO2. Fluorescent spots were counted over time and compared to the no-chemokine control to calculate the migration index (#migrated cells towards attractant/#migrated cells towards no-attractant). The peak migration index was averaged between 3 technical replicates for each transduced donor per attractant concentration were plotted.

In the case of “WT CXCR4: wild-type human CXCR4 (SEQ ID NO: 1; with N-terminal 3xHA-tag SEQ ID NO: 2)”, the “migration (fold-migration over no-chemoattractant control)” value is reported as “around 1.5 fold”.
